For the assay, the target named is T1, HGFR autophosphorylation (Homo sapiens, UniProt P08581).
T1 construct: endogenous in cells; host or cells: MKN-45 human gastric cancer cells
The experiment in a line: Inhibitory activity against the HGFR autophosphorylation using ELISA. The class given is cell-based. The settings on record: MKN-45 cells, 1 hr treatment, read-out: IC50 (concentration necessary to inhibit HGFR autophosphorylation activity by 50%). On the procedure:
Human gastric cancer cells (MKN-45) were suspended in a 1% FBS-containing RPMI1640 medium (purchased from Sigma). The cell suspension (1×10^5 cells/ml) was put in a 96-well plate for cell culture (purchased from NUNC, Production No. 167008) at 0.1 ml/well, and then cultured in a 5% CO2 incubator (37° C.) overnight. After the culture, from each well was removed the supernatant solution, followed by adding 0.05 ml of a 1% FBS-containing RPMI1640 medium. Then, the well was supplied with 0.05 ml of the test substance dissolved in dimethyl sulfoxide (diluted with a 1% FBS-containing RPMI1640 medium), followed by culturing in a 5% CO2 incubator (37° C.) for 1 hr. From each well was removed the supernatant, and each well was washed with 150 μl of PBS, followed by adding 100 μl of a lysis buffer (50 mM Hepes (pH 7.4), 150 mM NaCl, 10% (v/v) glycerol, 1% Triton X-100, 1.5 mM MgCl2, 1 mM EDTA (pH 8.0), 100 mM NaF, 1 mM PMSF, 10 μg/ml Aprotinin, 50 μg/ml Leupeptin, 1 μg/ml Pepstatin A and 1 mM Na3VO4). The plate was shaken at 4° C. for 1 hr to prepare the cell extract.
To a 96-well plate for ELISA (purchased from COSTAR, Production No. 3369) was added 50 μl of 60 mM bicarbonate buffer (pH 9.6) containing 50 μg/ml of an anti-phosphotyrosine antibody (PY20, purchased from Transduction Laboratory, Production No. P-11120). The plate was incubated at 4° C. overnight.
Each well of the plate prepared in 2. was washed three times with 200 μl of PBS, and supplied with 150 μl of 3% BSA/PBS, followed by incubating at room temperature for 2 hrs. Each well was washed three times with 200 μl of PBS, and supplied with 50 μl of the above cell extract, followed by incubating at 4° C. overnight. After the incubation, each well was washed three times with 250 μl of a washing solution (0.1% BSA, 20 mM Tris-HCl (pH 7.6), 137 mM NaCl, and 0.05% Tween-20), and supplied with 70 μl of anti-HGFR antibody (h-Met(C-12), purchased from Santa Cruz, Production No. sc-10) 2,000-fold diluted with a reaction solution (1% BSA, 20 mM Tris-HCl (pH 7.6), 137 mM NaCl and 0.05% Tween-20), followed by incubating at room temperature for 1 hr. The well was washed three times with 250 μl of the washing solution, and supplied with 70 μl of peroxidase-labelled anti-rabbit IgG antibody (purchased from Cell Signaling, Production No. 7074) 2,000-fold diluted with the reaction solution, followed by incubating at room temperature for 1 hr. Each well was washed three times with 250 μl of the washing solution, and supplied with 70 μl of TMB Membrane Peroxidase Substrate (purchased from Funakoshi, Production No. 50-5077-03), followed by incubating at room temperature for 10 min. Each well was supplied with 70 μl of 1 M phosphoric acid, and using the Plate Reader MTP-500 (Corona Electric), the absorbance of the well was instantly determined at a measurement wavelength of 450 nm. While defining the absorbance of a well supplied with the cell extract having no test substance as 100% HGFR autophosphorylation activity, and the absorbance of a well supplied with 50 μl of the lysis buffer as 0% HGFR autophosphorylation activity, the HGFR autophosphorylation activity (%) was calculated for each well. The concentration of the test substance was changed by several levels to calculate HGFR autophosphorylation activities (%) in respective cases, and to calculate the concentration (IC50) of the test substance necessary to inhibit HGFR autophosphorylation activity by 50%.

T1 sequence (P08581 25-1390): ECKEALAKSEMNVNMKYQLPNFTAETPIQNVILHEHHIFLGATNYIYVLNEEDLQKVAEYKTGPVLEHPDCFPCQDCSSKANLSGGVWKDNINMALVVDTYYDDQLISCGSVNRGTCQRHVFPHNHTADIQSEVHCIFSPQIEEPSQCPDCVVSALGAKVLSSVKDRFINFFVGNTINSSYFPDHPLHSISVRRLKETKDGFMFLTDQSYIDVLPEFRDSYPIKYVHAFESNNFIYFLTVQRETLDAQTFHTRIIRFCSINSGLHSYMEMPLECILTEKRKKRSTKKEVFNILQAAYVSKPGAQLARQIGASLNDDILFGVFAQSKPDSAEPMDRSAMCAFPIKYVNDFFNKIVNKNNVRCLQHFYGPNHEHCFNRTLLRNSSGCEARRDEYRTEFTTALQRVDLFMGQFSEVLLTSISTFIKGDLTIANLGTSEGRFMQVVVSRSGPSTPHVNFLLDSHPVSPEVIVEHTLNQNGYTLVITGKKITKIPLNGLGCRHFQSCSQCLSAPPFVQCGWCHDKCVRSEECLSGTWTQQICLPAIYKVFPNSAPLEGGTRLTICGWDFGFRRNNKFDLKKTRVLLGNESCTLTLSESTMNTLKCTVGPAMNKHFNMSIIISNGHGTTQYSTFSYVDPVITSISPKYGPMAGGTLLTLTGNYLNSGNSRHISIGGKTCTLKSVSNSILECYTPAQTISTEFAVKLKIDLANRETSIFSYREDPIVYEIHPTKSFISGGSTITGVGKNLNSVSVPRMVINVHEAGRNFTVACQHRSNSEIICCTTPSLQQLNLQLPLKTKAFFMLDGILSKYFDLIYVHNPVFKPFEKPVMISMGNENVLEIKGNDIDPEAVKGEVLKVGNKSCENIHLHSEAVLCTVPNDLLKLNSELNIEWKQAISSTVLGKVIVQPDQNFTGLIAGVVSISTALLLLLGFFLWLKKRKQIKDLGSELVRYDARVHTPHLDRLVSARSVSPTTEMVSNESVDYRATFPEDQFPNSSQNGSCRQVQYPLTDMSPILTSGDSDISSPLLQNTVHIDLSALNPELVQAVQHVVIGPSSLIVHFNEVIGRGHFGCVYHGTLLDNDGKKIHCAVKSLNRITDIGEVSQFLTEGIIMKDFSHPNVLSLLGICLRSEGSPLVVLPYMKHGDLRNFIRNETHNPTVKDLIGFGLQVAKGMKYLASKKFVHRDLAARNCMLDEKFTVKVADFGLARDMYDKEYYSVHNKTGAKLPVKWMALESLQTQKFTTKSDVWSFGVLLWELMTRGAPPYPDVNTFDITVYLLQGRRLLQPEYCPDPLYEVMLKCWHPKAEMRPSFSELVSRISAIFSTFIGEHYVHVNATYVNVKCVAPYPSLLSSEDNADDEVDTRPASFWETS

For `CN1CCC(N(C)C(=O)Nc2cc(Oc3ccc(NC(=O)NC(=O)Cc4ccccc4)cc3F)ccn2)CC1` [Example 52, 3-{4-[2-Fluoro-4-(3-phenylacetylureido)phenoxy]pyridin-2-yl]-1-methyl-1-(1-methylpiperidin-4-yl)urea], the IC50 turned out to be 340 nM. The same measure for `O=C(Cc1ccccc1)NC(=O)Nc1ccc(Oc2ccnc(NC(=O)N3CCOCC3)c2)c(F)c1` [Example 48, Morpholine-4-carboxylic acid {4-[2-fluoro-4-(3-phenylacetylureido)phenoxy]pyridin-2-yl}amide]: 260 nM; for `O=C(Cc1ccc(F)cc1)NC(=S)Nc1ccc(Oc2ccnc(NC(=O)N3CCCC3)c2)cc1` [Example 9, Pyrrolidine-1-carboxylic acid [4-(4-{3-[2-(4-fluorophenyl)acetyl]thioureido}phenoxy)pyridin-2-yl]amide]: 20 nM; for `CN1CCN(C(=O)Nc2cc(Oc3ccc(NC(=O)NC(=O)Cc4ccccc4)cc3F)ccn2)CC1` [Example 50, 4-Methylpiperazine-1-carboxylic acid {4-[2-fluoro-4-(3-phenylacetylureido)phenoxy]pyridin-2-yl}amide]: 280 nM. Then `O=C(Cc1ccc(F)cc1)NC(=S)Nc1ccc(Oc2ccnc(NC(=O)N3CCCC3)c2)c(F)c1` [Example 13, 4-(2-Fluoro-4-{3-[2-(4-fluorophenyl)acetyl]thioureido}phenoxy)-2-[(pyrrolidin-1-yl)carbonylamino]pyridine], with 6.8 nM; and `Cc1cc(Oc2ccnc(NC(=O)N3CCC(N4CCCC4)CC3)c2)ccc1NC(=O)CC(=O)Nc1ccc(F)cc1` [Example 85, N-(4-Fluorophenyl)-N′-[2-methyl-4-(2-{[(4-pyrrolidin-1-yl)piperidine-1-carbonyl]amino}pyridin-4-yloxy)phenyl]malonamide], with 590 nM; and `O=C(Cc1ccccc1)NC(=O)Nc1ccc(Oc2ccnc(NC(=O)N3CCCC3)c2)c(F)c1` [Example 43, 4-{2-Fluoro-4-[3-(2-phenylacetyl)ureido]phenoxy}-2-[(pyrrolidin-1-yl)carbonylamino]pyridine], with 59 nM. Regarding `CN(C)C(=O)Nc1cc(Oc2ccc(NC(=O)NC(=O)Cc3ccccc3)cc2F)ccn1` [Example 44, 2-[(Dimethylamino)carbonylamino]-4-{2-fluoro-4-[3-(2-phenylacetyl)ureido]phenoxy}pyridine], the IC50 is 350 nM. In the case of `O=C(CC(=O)Nc1ccc(Oc2ccnc(NC(=O)C3CC3)c2)cc1F)Nc1ccc(F)cc1` [Example 77, N-(4-Fluorophenyl)-N′-{4-[2-(cyclopropanecarbonylamino)pyridin-4-yloxy]-2-fluorophenyl}malonamide], the IC50 stood at 110 nM. The same measure for `CN(C)C(=O)Nc1cc(Oc2ccc(NC(=S)NC(=O)CC3CC4CCC3C4)cc2F)ccn1` (stereo not drawn) [Example 17, 2-[(Dimethylamino)carbonylamino]-4-{2-fluoro-4-[3-(2-norbornaneacetylthio)ureido]phenoxy}pyridine]: 120 nM; for `O=C(CC(=O)Nc1ccc(Oc2ccnc(NC(=O)N3CCCC3)c2)c(F)c1)Nc1ccc(F)cc1` [Example 56, N-(4-Fluorophenyl)-N′-(3-fluoro-4-{2-[(pyrrolidine-1-carbonyl)amino]pyridin-4-yloxy}phenyl)malonamide]: 130 nM; for `CN1CCC(N(C)C(=O)Nc2cc(Oc3ccc(NC(=O)CC(=O)Nc4ccc(F)cc4)cc3F)ccn2)CC1` [Example 89, N-(3-Fluoro-4-{2-[3-methyl-3-(1-methylpiperidin-4-yl)ureido]pyridin-4-yloxy}phenyl)-N′-(4-fluorophenyl)malonamide]: 49 nM. Take `O=C(Cc1ccccc1)NC(=O)Nc1ccc(Oc2ccnc(NC(=O)N3CCC(N4CCCC4)CC3)c2)c(F)c1` [Example 45, 4-{2-Fluoro-4-[3-(2-phenylacetyl)ureido]phenoxy}-2-{[4-(pyrrolidin-1-yl)piperidin-1-yl]carbonylamino}pyridine]: the IC50 turned out to be 350 nM.

Consider `O=C(CC(=O)Nc1ccc(Oc2ccnc(NC(=O)N3CCC(N4CCCC4)CC3)c2)cc1F)Nc1ccc(F)cc1` [Example 82, N-(4-Fluorophenyl)-N′-[2-fluoro-4-(2-{[4-(pyrrolidin-1-yl)piperidine-1-carbonyl]amino}pyridin-4-yloxy)phenyl]malonamide], for which the IC50 was 88 nM. Then `O=C(Cc1ccc(F)cc1)NC(=S)Nc1ccc(Oc2cc(NC(=O)N3CCCC3)ncn2)c(F)c1` [Example 3, Pyrrolidine-1-carboxylic acid [6-(2-fluoro-4-{3-[2-(4-fluorophenyl)acetyl]thioureido}phenoxy)pyrimidin-4-yl]amide], with 20 nM. Then `Cc1cc(NC(=S)NC(=O)Cc2ccc(F)cc2)ccc1Oc1ccnc(NC(=O)N2CCOCC2)c1` [Example 24, Morpholine-4-carboxylic acid (4-{2-methyl-4-[3-(4-fluorophenyl)acetylthioureido]phenoxy}pyridin-2-yl)amide], with 69 nM.

`O=C(Cc1ccccc1)NC(=S)Nc1ccc(Oc2ccnc(NC(=O)N3CCC(O)CC3)c2)c(F)c1` [Example 15, 4-{2-Fluoro-4-[3-(2-phenylacetyl)thioureido]phenoxy}-2-[(4-hydroxypiperidin-1-yl)carbonylamino]pyridine]: the IC50 stood at 13 nM.

For the compound `CN1CCCN(C(=O)Nc2cc(Oc3ccc(NC(=O)CC(=O)Nc4ccc(F)cc4)c(F)c3)ccn2)CC1` [Example 92, N-(2-Fluoro-4-{2-[(4-methyl-[1,4]diazepane-1-carbonyl)amino]pyridin-4-yloxy}phenyl)-N′-(4-fluorophenyl)malonamide], the IC50 was found to be 540 nM. Consider `CCN(CC)CCCN(C)C(=O)Nc1cc(Oc2ccc(NC(=S)NC(=O)Cc3ccc(F)cc3)cc2F)ccn1` [Example 22, 1-(3-Diethylaminopropyl)-3-[4-(2-fluoro-4-{3-[2-(4-fluorophenyl)acetyl]thioureido}phenoxy)pyridin-2-yl]-1-methylurea], for which the IC50 is below 30 nM. As for `O=C(Cc1ccccc1)NC(=S)Nc1ccc(Oc2ccnc(NC(=O)N3CCOCC3)c2)c(Cl)c1` [Example 11, 4-{2-Chloro-4-[3-(2-phenylacetyl)thioureido]phenoxy}-2-[(morpholin-4-yl)carbonylamino]pyridine], the IC50 was found to be 43 nM.

For `CN1CCC(N(C)C(=O)Nc2cc(Oc3ccc(NC(=S)NC(=O)Cc4ccccc4)cc3F)ccn2)CC1` [Example 28, 3-{4-[2-Fluoro-4-(3-phenylacetylthioureido)phenoxy]pyridin-2-yl}-1-methyl-1-(1-methylpiperidin-4-yl)urea], the IC50 is 19 nM.

The values above are taken from patent US20070270421A1, “Novel pyridine Derivative and Pyrimidine Derivative (1)” (priority 2004, published 2007).
